Reference: patent US4666897A, “Inhibition of mammalian collagenolytic enzymes by tetracyclines” (Research Foundation of State University, priority 1983, dated 1987)

Assays:
[1] = system: fetal rat bones (radii and ulnae) in organ culture; assay: PTH-induced bone resorption in organ culture (45calcium release); type: cell-based; conditions: for effect on PTH-enhanced bone resorption, in words: concentrations 0.2-300 μg/ml
Method: The technique used to assess bone resorption is based on monitoring the release of radioactive calcium, previously incorporated by embryonic bones in vivo, during organ culture. Pregnant Sprague-Dawley rats were injected subcutaneously with 200 μCi of ^45 calcium chloride on the 18th day of gestation. The following day, the animals were killed, the fetuses removed, and the radii and ulnae dissected under aseptic conditions. […] The bones were then randomly distributed and each bone, either a radius or ulna, was incubated in 0.5 ml of culture media alone or in a media containing parathyroid hormone (PTH: human synthetic 1-34 peptide, Beckman Instruments, Inc., Palo Alto, California) added in a final concentration of 1.0 μg/ml; the experimental bones were incubated in the PTH containing medium to which was added different concentrations (0.2-300 μg/ml) of the antibiotics to be tested. The bones were cultured for 5 days, with the media being changed after day 2, and the incubation terminated. The bones were decalcified in 0.2 ml of 5% trichloroacetic acid and the ^45 calcium content of the residual bones and of the culture media was measured as described previously. (Werner and Raisz, Endocrinology, 90, 752 (1972 ) and Gomes, et. al., Calc. Tiss. Res., 19, 285 (1976)). The ^45 calcium released into the media was calculated as a percentage of the total radioactive calcium measured in the bones.

[2] = target: T1, rat PMNL collagenolytic activity (PMNL collagenase) (Rattus norvegicus, UniProt O88766); assay: Rat PMNL collagenolytic activity in vitro (14C-collagen gel lysis); type: biochemical; conditions: Table 2; for Collagenolytic Activity: % ^14 C-collagen gel lyzed: PMNL extract (30 × 10^6 PMNLs per ml) + 20 ug/ml, control extract 39.0
T1 construct: An extract of PMNLs was prepared; from tissue; host or cells: extract of peritoneal exudate polymorphonuclear leucocytes of non-diabetic rats, elicited with glycogen
Method: To test the effect of physiologic levels of minocycline (the concentration in human serum, during a therapeutic regimen, is approximately 2 ug/ml; that in the gingival crevicular fluid is 4-5 times greater; Ciancio, et. al., 1980, J. Periodontol., 51, 531-534) on mammalian collagenolytic activity in vitro, peritonealexudate polymorphomuclear leucocytes (PMNLs) were collected from 15 mole (non-diabetic) rats 4 hours after I.P. injection of 0.15% glycogen. An extract of PMNLs was prepared, 250 μl aliquots of this extract were incubated with ^14 C-glycine labeled collagen fibrils for 14 hours at 35° C. (in the presence or absence of minocycline, or EDTA, or additional CaCl2), and collagenolytic activity was measured as described by Nicoll, et al., (Experientia., 37, 315-317).
The techniques used to measure the collagenolytic enzyme activity of gingival tissue in culture, and in polymorphonuclear leucocytes (PMNLs), are those described by Golub, et. al., (J. Dent. Res., 57, 520-525 (197)8) and Nicoll, et. al., (Experimentia, 37, 315-317, (1981)) with minor modifications.

[3] = system: GCF collagenase and gingival disease in diabetic twins; assay: Human gingival crevicular fluid (GCF) study, diabetic twin brothers; type: in vivo; conditions: 7 days of treatment
Method: In a separate study involving humans, gingival crevicular fluid (GCF) samples were collected on filter paper strips inserted into 8 interproximal pockets of selected teeth in the maxillary arch of two twin brothers with juvenile-onset (insulin-dependent) diabetes mellitus. Fluid volume was immediately determined on a modified Periotron (Model 6000, Harco Electronics Ltd., Winnipeg, Canada); then incubated with 10 μl (^3 H-methyl) collagen (20,675 DPM) and 70 μl buffer (50 mM Tris-HCl, pH 7.8, containing 0.2 M sodium chloride and 5 mM calcium chloride). The GCF samples (or reagent blanks or trypsin controls) were incubated at 27° C. for 18 hours with gentle shaking. The reaction was stopped and undigested collagen precipitated by adding 10 μl 0.1 M phenanthroline in dioxane/water (1:1, v/v), 10 μl of nonradioactive methylated carrier collagen (2 mg/ml) in 50 mM Tris-HCl buffer containing 1M NaCl (pH 7.0), and 100 μl dioxane. After mixing, the radiolabeled collagen degradation products were collected by filtration and counted in a liquid scintillation spectrometer (Golub, et. al., 1976, J. Dent. Res., 55, 1049). Using this technique, the reaction blank (no enzyme or GCF added) released about 10% of the total substrate counts; 2-20 ng bacterial collagenase produced a linear increase in the release of radioactive counts from the ^3 H-collagen substrate (the 20 ng level of enzyme degraded 60% of the collagen substrate); and 50 ng trypsin released less than 1% of the counts above blank values. GCF collagenase activity was expressed as units of equivalent activity of vertebrate collagenase (obtained from New England Nuclear, Cat. No. NEK-016); 1 unit was operationally defined as the amount of enzyme that degrades 1 μg of collagen per hour at 27° C.
Four additional GCF samples were collected from other maxillary pockets of the same diabetic twin brothers on filter paper strips, their volume determined (see above), and collagenolytic activity assessed using the same procedure described above but with a different substrate (10 μl of (^3 H-propionate) collagen, NET-660, New England Nuclear Corp., Boston, Mass., 302,000 DPM).
Half of the 12 GCF samples per subject were activated by pretreatment with 1.04 uM trypsin followed by the addition of a 5-fold molar excess of soybean trypsin inhibitor. Samples were selected to be treated or not treated with trypsin by matching them for Gingival Index (Loe and Silness, Acta. Odont. Scand., 21, 533-551 (1967)), GCF flow, and for pocket depth; the clincal parameters (GI, PD) were measured immediately after GCF collection. All measurements were carried out immediately before antibiotic coverage and after 7 days of treatment with either pencillin G (lg. per day; patient three) or the tetracycline minocycline (200 mg/day; patient one).

[4] = system: periodontal disease in patients; conditions: patients who did not respond to routine periodontal therapy; cited from earlier work
rheumatoid arthritis = conditions: in vivo; cited from earlier work
[5] = system: periodontal disease in dogs; conditions: dogs on long-term therapy; cited from earlier work
[6] = system: ^14 C-glycine labeled collagen fibrils; assay: Lysis of 14C-collagen gel by control enzymes (no PMNL extract); type: biochemical; conditions: Table 1, 1 μg enzyme
[7] = penicillin G 1 g per day (P. D.) or minocycline 200 mg/day (K. D.)

T1 sequence (O88766 102-466): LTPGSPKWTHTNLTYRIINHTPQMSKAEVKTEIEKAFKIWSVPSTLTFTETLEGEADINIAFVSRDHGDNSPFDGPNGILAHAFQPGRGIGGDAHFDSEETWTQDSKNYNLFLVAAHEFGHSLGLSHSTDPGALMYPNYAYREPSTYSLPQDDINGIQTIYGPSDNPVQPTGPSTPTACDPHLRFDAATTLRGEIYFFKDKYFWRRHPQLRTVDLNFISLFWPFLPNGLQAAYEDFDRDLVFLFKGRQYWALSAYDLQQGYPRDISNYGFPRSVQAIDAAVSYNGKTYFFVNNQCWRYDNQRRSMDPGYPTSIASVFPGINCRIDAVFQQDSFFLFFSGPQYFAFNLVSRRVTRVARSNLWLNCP

With CC1(C)S[C@@H]2[C@H](NC(=O)[C@H](N)c3ccccc3)C(=O)N2[C@H]1C(=O)O [ampicillin] the “^45 Calcium in Fetal Bone Released into Media (%) after 2 days incubation” value (shortened to “^45 Calcium … (%) after 2 days incubation”) ([1]; Table 5, PTH + 6 μg/ml) was 52.3 ± 1.9%, the “^45 Calcium in fetal bone Released into media (%) after 5 days incubation” value (“^45 Calcium … (%) after 5 days incubation” for short) ([1]; Table 5, PTH + 6 μg/ml) was 92.2 ± 2.0% and the “^45 Calcium … (%) after 2 days incubation” value ([1]; Table 5, PTH + 20 μg/ml) was 52.8 ± 1.7%. The “^45 Calcium … (%) after 5 days incubation” value ([1]; Table 5, PTH + 20 μg/ml) was 92.6 ± 0.5%, the “^45 Calcium … (%) after 2 days incubation” value ([1]; Table 5, PTH + 40 μg/ml) was 51.9 ± 2.1% and the “^45 Calcium … (%) after 5 days incubation” value ([1]; Table 5, PTH + 40 μg/ml) was 94.2 ± 1.1%. The “^45 Calcium … (%) after 2 days incubation” value ([1]; Table 5, PTH + 60 μg/ml) was 50.9 ± 1.7%, the “^45 Calcium … (%) after 5 days incubation” value ([1]; Table 5, PTH + 60 μg/ml) was 93.9 ± 0.7% and the “^45 Calcium … (%) after 2 days incubation” value ([1]; Table 5, PTH + 200 μg/ml) was 50.8 ± 1.8%. The “^45 Calcium … (%) after 5 days incubation” value ([1]; Table 5, PTH + 200 μg/ml) was 91.4 ± 0.7%, the “effect on PTH-enhanced bone resorption, in words” value [1] was “no detectable effect” and the “effect on PMNL collagenolytic activity, in words” value [2] was “ineffective”. For the same molecule, the “Collagenolytic Activity: % ^14 C-collagen gel lyzed” value [2] was 35.7%.

In the case of CC1(C)S[C@@H]2[C@H](NC(=O)Cc3ccccc3)C(=O)N2[C@H]1C(=O)O [penicillin], the “effect on PTH-enhanced bone resorption, in words” value [1] is reported as “no detectable effect”, the GCF flow [3, 7] is reported as “little or no effect” and the “Gram-positive and Gram-negative organisms in the pockets” value [3, 7] is reported as “reduced the Gram-positive but increased the Gram-negative organisms”. The “active GCF collagenase” value [3, 7] was “little or no effect”, the pocket depth [3, 7] was “little or no effect” and the “total GCF collagenase (after trypsin pretreatment)” value [3, 7] was “appeared to increase”. The “Gingival Index (G. I.)” value ([3]; penicillin G 1 g per day (patient three) or minocycline 200 mg/day (patient one)) was “little or no effect”.

In the case of CN(C)[C@@H]1C(=O)C(C(N)=O)=C(O)[C@@]2(O)C(=O)C3=C(O)c4c(O)cccc4[C@@](C)(O)[C@H]3C[C@@H]12 [tetracycline, Tetracycline], the “^45 Calcium … (%) after 2 days incubation” value ([1]; Table 4, first column, PTH + 0.2 μg/ml) is reported as 58.4 ± 1.3%, the “^45 Calcium … (%) after 2 days incubation” value ([1]; Table 4, first column, PTH + 2.0 μg/ml) is reported as 59.9 ± 1.5% and the “^45 Calcium … (%) after 2 days incubation” value ([1]; Table 4, first column, PTH + 20 μg/ml) is reported as 45.0 ± 0.7%. The “^45 Calcium … (%) after 2 days incubation” value ([1]; Table 4, first column, PTH + 200 μg/ml) was 14.4 ± 0.4%, the “^45 Calcium … (%) after 2 days incubation” value ([1]; Table 4, second column, PTH + 0.2 μg/ml) was 93.0 ± 1.7% and the “^45 Calcium … (%) after 2 days incubation” value ([1]; Table 4, second column, PTH + 2.0 μg/ml) was 97.2 ± 0.8%. The “^45 Calcium … (%) after 2 days incubation” value ([1]; Table 4, second column, PTH + 20 μg/ml) was 69.4 ± 3.5%, the “^45 Calcium … (%) after 2 days incubation” value ([1]; Table 4, second column, PTH + 200 μg/ml) was 19.8 ± 0.5% and the “effect on PTH-enhanced bone resorption, in words” value [1] was “inhibited bone resorption in a dose responsive manner”. The “clinical benefit of long-term use” value [4] was “clinically beneficial”, the “treatment of rheumatoid arthritis” value (rheumatoid arthritis) was “effective” and the “Collagenolytic Activity: % ^14 C-collagen gel lyzed” value [2] was 2.0%. For the same molecule, the periodontal disease [5] was “significant improvement”.

B1: Trypsin: protease control for non-specific proteolysis of the collagen substrate (protein, UniProt P00760 24-246, looked up)
Serine protease 1: IVGGYTCGANTVPYQVSLNSGYHFCGGSLINSQWVVSAAHCYKSGIQVRLGEDNINVVEGNEQFISASKSIVHPSYNSNTLNNDIMLIKLKSAASLNSRVASISLPTSCASAGTQCLISGWGNTKSSGTSYPDVLKCLKAPILSDSSCKSAYPGQITSNMFCAGYLEGGKDSCQGDSGGPVVCSGKLQGIVSWGSGCAQKNKPGVYTKVCNYVSWIKQTIASN
With B1 the “Collagenolytic Activity: % ^14 C-collagen gel lysed” value [6] was 2.6%.
